Test results reported in patent US7495023B2, “Thio semicarbazone and semicarbozone inhibitors of cysteine proteases and methods of their use” (The Regents of the University of California, priority 2002, dated 2009).
Like-named read-outs stand apart in the source and are kept apart here.

Columns and labels:
[1] = molecular target: T. cruzi cathepsin L-like protease (cruzain) (Trypanosoma cruzi, UniProt P25779); assay: biochemical
Experimental: IC50 Determinations. Inhibitors were screened for effectiveness against the T. cruzi cathepsin L-like protease (cruzain) using purified recombinant protein. Cruzain (1 nM) was incubated with 20-50000 nM inhibitor in 100 mM sodium acetate-5 mM DTT buffer (pH 5.50, buffer A) for 5 min at room temperature. […] The increase in fluorescence (excitation at 355 nm and emission at 460 nm) was followed with an automated microtiter plate spectrofluorimeter (Molecular Devices, spectraMAX Gemini). Inhibitor stock solutions were prepared at 20 mM in DMSO, and serial dilutions were made in DMSO (0.7% DMSO in assay). Controls were performed using enzyme alone and enzyme with DMSO. IC50 values were determined graphically using inhibitor concentrations in the linear portion of a plot of inhibition versus log [I] (seven concentrations were tested, and at least two were in the linear range).

T. cruzi (Y strain) = assay: Anti-trypanosomal cell culture assay, T. cruzi-infected J774 macrophages; type: cell-based; conditions: inhibitor 10 μM, cultures up to 30 days
Experimental: Drug Screening in Cell Culture. Mammalian cells are routinely cultured in RPMI-1640 medium supplemented with 5-10% heat-inactivated fetal calf serum (FCS) at 37° C. in 5% CO2. The Y strain of T. cruzi is maintained by serial passage in bovine embryo skeletal muscle (BESM) cells. Infectious trypomastigotes are collected from culture supernatants. For drug assays, J774 macrophages were irradiated (5000 rad) and plated onto six-well tissue culture plates 24 h prior to infection with ˜106 trypomastigotes/well. […] Inhibitor stocks (10 mM) in DMSO were stored at 4° C. J774 monolayers treated with a blank containing DMSO are used as a negative control, and monolayers treated with a known trypanocidal inhibitor, 10 μM N-methyl piperazine-Phe-homoPhe-vinyl sulfone phenyl (N-Pip-F-hF-VSPh) acted as a positive control (Engel et al., J. Exp. Med., 188:725-734 (1998)). RPMI medium with or without inhibitor is replaced every 48 h. Cultures are maintained for up to 30 days and monitored daily by contrast phase microscopy. […] The comparative effectiveness of each inhibitor was estimated from plots of the duration of the intracellular cycle of T. cruzi (days) in treated vs untreated control wells.

cruzain = cruzain (Trypanosoma cruzi, UniProt P25779); type: biochemical; conditions: incubation 90 s to 24 h
Sequence of cruzain (P25779 123-467): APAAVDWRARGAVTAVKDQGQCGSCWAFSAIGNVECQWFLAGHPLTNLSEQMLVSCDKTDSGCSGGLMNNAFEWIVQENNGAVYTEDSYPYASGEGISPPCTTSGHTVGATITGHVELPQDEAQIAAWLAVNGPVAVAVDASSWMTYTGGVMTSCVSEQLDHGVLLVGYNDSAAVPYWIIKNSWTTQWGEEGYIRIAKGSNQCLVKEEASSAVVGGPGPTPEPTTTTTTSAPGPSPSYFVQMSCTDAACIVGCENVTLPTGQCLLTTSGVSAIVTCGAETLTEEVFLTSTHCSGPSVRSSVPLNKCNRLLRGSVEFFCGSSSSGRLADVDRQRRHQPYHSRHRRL
Experimental: The time dependence of inhibition was determined by incubating cruzain with inhibitors, DMSO, or enzyme alone at room temperature for time points between 90 s and 24 h. The enzymatic activity was determined as above.
A known irreversible inhibitor, K002 (morpholino urea-Phe-homoPhe-vinyl sulfone benzene; Axys Pharmaceuticals Inc., South San Francisco, Calif.), and a known reversible covalent inhibitor, leupeptin, were used as controls for the thio semicarbazones.

[2] = 5 min incubation, room temperature, pH 5.50, read-out: IC50 against cruzain

Sequence of T. cruzi cathepsin L-like protease (cruzain) (P25779 123-467): as above

Row | SMILES | melting point | effect on T. cruzi in cell culture (trypanocidal / trypanostatic / inactive) (T. cruzi (Y strain)) | further results
1 | CCC(=NNC(N)=S)c1ccc2cc(OC)ccc2c1 [Compound 1k, 6′-Methoxy-2′-propiononaphthone Thio Semicarbazone] | 170.5 to 171.2 °C | – | –
2 | CN(C)c1ccc(C=NNC(N)=S)c2ccccc12 [Compound 1l, 4-Dimethylamino-1-naphthaldehyde Thio Semicarbazone] | 170.5 to 171.2 °C | – | –
3 | Cn1cc(C=NNC(N)=S)c2ccccc21 [Compound 1m, 1-Methylindole-3-carboxaldehyde Thio Semicarbazone] | 200.3 to 201.2 °C | – | –
4 | CCC(=NNC(N)=S)c1cccc(Cl)c1 [Compound 2a, 3′-Chloropropiophenone Thio Semicarbazone] | – | trypanocidal | IC50 [1]: 0.22 µM
5 | CCC(=NNC(N)=S)c1cccc(C(F)(F)F)c1 [Compound 2b, 3′-Trifluoromethylpropiophenone Thio Semicarbazone] | – | trypanocidal | cruzain inhibitory activity, in words [1]: better IC50 values than 1i; IC50 [1, 2]: 0.05 µM
6 | CCC(=NNC(N)=S)c1cccc(F)c1 [Compound 2c, 3′-Fluoropropiophenone Thio Semicarbazone] | 138.8 to 139.5 °C | – | –
7 | CCC(=NNC(N)=S)c1ccccc1 [Compound 2d, Propiophenone Thio Semicarbazone] | 116.8 to 117.9 °C | – | drop / loss of activity compared to 1i (cruzain) ([1]; compared to 1i): at least 2 orders of magnitude
8 | CCC(=NNC(N)=S)c1ccc(Br)cc1 [Compound 2e, 4′-Bromopropiophenone Thio Semicarbazone] | 171.3 to 173 °C | – | –
9 | CCC(=NNC(N)=S)c1ccc(Cl)cc1 [Compound 2f, 4′-Chloropropiophenone Thio Semicarbazone] | 175.1 to 176.8 °C | – | –
10 | CCC(=NNC(N)=S)c1ccc(OC)cc1 [Compound 2g, 4′-Methoxypropiophenone Thio Semicarbazone] | 117.8 to 119.8 °C | – | –
11 | CCC(=NNC(N)=S)c1cc(C(F)(F)F)cc(C(F)(F)F)c1 [Compound 2h, 3′,5′-bis(trifluoromethyl)propiophenone Thio Semicarbazone] | – | – | cruzain inhibitory activity, in words [1]: better IC50 values than 1i; IC50 [1, 2]: 0.02 µM; increase in activity over 1i (cruzain) ([1]; compared to 1i): ~5 fold
12 | CCC(=NNC(N)=S)c1ccc(Cl)cc1Cl [Compound 2j, 2′,4′-Dichloropropiophenone Thio Semicarbazone] | 171.8 to 173 °C | – | –
13 | CC(=NNC(N)=S)c1ccccc1Br [Compound 2l, 2′-Bromoacetophenone Thio Semicarbazone] | 144.5 to 146.2 °C | – | –
14 | CC(=NNC(N)=S)c1ccccc1Cl [Compound 2m, 2′-Chloroacetophenone Thio Semicarbazone] | 155.8 to 156.7 °C | – | –
15 | NC(=S)NN=Cc1ccccc1C(F)(F)F [Compound 2p, 2-Trifluoromethylbenzaldehyde Thio Semicarbazone] | 248.3 to 249.4 °C | – | –
16 | NC(=S)NN=Cc1cccc(Br)c1 [Compound 3a, 3-Bromobenzaldehyde Thio Semicarbazone] | – | – | IC50 [1, 2]: 1.3 µM; time dependence of cruzain inhibition (cruzain): time-dependent
17 | CC(=NNC(N)=S)c1cccc(Br)c1 [Compound 3b, 3′-Bromoacetophenone Thio Semicarbazone] | – | trypanocidal effect | IC50 [1, 2]: 0.2 µM; time dependence of cruzain inhibition (cruzain): time-dependent
18 | CC(=NNC(N)=S)c1cccc(C(F)(F)F)c1 [Compound 3d, 3-Trifluoromethylacetophenone Thio Semicarbazone] | – | trypanostatic | –

Row | SMILES | melting point | effect on T. cruzi in cell culture (trypanocidal / trypanostatic / inactive) (T. cruzi (Y strain)) | further results
19 | CC(=NNC(N)=S)c1cc(C(F)(F)F)cc(C(F)(F)F)c1 [Compound 3f, 3′,5′-Bis(trifluoromethyl)acetophenone Thio Semicarbazone] | – | trypanostatic | cruzain inhibitory activity, in words [1]: better IC50 values than 1i
20 | CC(=NNC(N)=S)c1ccc(Cl)c(Cl)c1 [Compound 3h, 3′,4′-Dichloroacetophenone Thio Semicarbazone] | – | trypanocidal | cruzain inhibitory activity, in words [1]: better IC50 values than 1i
21 | NC(=S)N1CCC(c2cccc(Br)c2)=N1 [Compound 4a, 3-(3-Bromophenyl)-2-pyrazoline-1-thiocarboxamide] | 172.9 to 174.5 °C | – | decrease in activity as compared to 1i (cruzain) ([1]; compared to 1i): 2 fold; time dependence of cruzain inhibition (cruzain): time-dependent
22 | CC1CN(C(N)=S)N=C1c1cccc(Br)c1 (stereo not drawn) [Compound 4b, 3-(3-Bromophenyl)-4-methyl-2-pyrazoline-1-thiocarboxamide] | 107.4 to 109.9 °C | trypanocidal effect | cruzain inhibitory activity, in words [1]: better than that of 1i; IC50 [1, 2]: 0.08 µM; time dependence of cruzain inhibition (cruzain): time-dependent
23 | NC(=S)N1CCC(c2cccc(Cl)c2)=N1 [Compound 4c, 3-(3-Chlorophenyl)-2-pyrazoline-1-thiocarboxamide] | – | inactive | –
24 | CC1CN(C(N)=S)N=C1c1cccc(Cl)c1 (stereo not drawn) [Compound 4d, 3-(3-Chlorophenyl)-4-methyl-2-pyrazoline-1-thiocarboxamide] | 131.3 °C (dec.) | trypanocidal | –
25 | NC(=S)N1CCC(c2ccc(Cl)c(Cl)c2)=N1 [Compound 4e, 3-(3,4-Dichlorophenyl)-2-pyrazoline-1-thiocarboxamide] | 199.3 to 201.4 °C | trypanocidal | cruzain inhibitory activity, in words [1]: better than that of 1i
26 | NC(=S)N1CCC(c2cccc(C(F)(F)F)c2)=N1 [Compound 4g, 3-(3-Trifluoromethylphenyl)-2-pyrazoline-1-thiocarboxamide] | 159.2 to 161.1 °C | inactive | cruzain inhibitory activity, in words [1]: better than that of 1i
27 | CC1CN(C(N)=S)N=C1c1cccc(C(F)(F)F)c1 (stereo not drawn) [Compound 4h, 3-(3-Trifluoromethylphenyl)-4-methyl-2-pyrazoline-1-thiocarboxamide] | 120.8 to 121.9 °C | trypanocidal | cruzain inhibitory activity, in words [1]: better than that of 1i
28 | CCC(=NN(SC)C(N)=O)c1cccc(Br)c1 [Compound 5a, 3′-Bromopropiophenone N-Methyl Thio Semicarbazone] | 156.6 to 158 °C | – | –
29 | S=C(Nc1cccc(Cl)c1)N1CCC(c2cccc(Br)c2)=N1 [Compound 5d, 3-(3-Bromophenyl)-2-pyrazoline-1-(IL3-chlorophenyl)thiocarboxamide] | 197.5 to 198.8 °C | no effect on the parasites | IC50 [1, 2]: 1 to 2 µM
30 | FC(F)(F)c1cccc(NC(=S)N2CCC(c3cccc(Cl)c3)=N2)c1 [Compound 5e, 3-(3-Chlorophenyl)-2-pyrazoline-1-(N-3-tri-fluoromethylphenyl)thiocarboxamide] | – | – | time dependence of cruzain inhibition (cruzain): showed time dependency
31 | CCCCCCNC(=S)N1CCC(c2cccc(Br)c2)=N1 [Compound 5f, 3-(3-Bromophenyl)-2-pyrazoline-1-(N-hexyl)-thiocarboxamide] | 117 to 118.2 °C | – | IC50 [1, 2]: 1 to 2 µM
32 | CC(=NNC(N)=O)c1cccc(Br)c1 [Compound 6b, 3′-Bromoacetophenone Semicarbazone] | 229.3 to 231.3 °C | – | –
33 | NC(=O)NN=Cc1ccc(-c2cccc(Cl)c2)o1 [Compound 6c, 5-(3-Chlorophenyl)-2-furancarboxaldehyde Semicarbazone] | 192.1 to 194.8 °C | – | –
34 | CCC(NNC(N)=S)c1cccc(Br)c1 (stereo not drawn) [Compound 7a, 1-(3′-bromophenyl)propylaminothiourea] | – | – | cruzain inhibitory activity, in words [1]: poor activity; time dependence of cruzain inhibition (cruzain): showed time dependency
35 | CC(=O)N[C@@H](CC(C)C)C(=O)N[C@@H](CC(C)C)C(=O)N[C@H](C=O)CCCNC(=N)N [leupeptin, reference compound] | – | – | time dependence of cruzain inhibition (cruzain): rapidly time-dependent
